{"source": "paper PMC6123365", "about": "“Pharmacokinetics of Nuciferine and N-Nornuciferine, Two Major Alkaloids From Nelumbo nucifera Leaves, in Rat Plasma and the Brain” (Frontiers in Pharmacology, 2018)", "key": {"[1]": {"test": "Plasma pharmacokinetics after single oral dose of lotus leaf alkaloid fraction", "type": "in vivo, SD rats", "conditions": "for bioavailability / Tmax / AUC(0-inf) / AUC(0-t) / Cmax / MRT inf / half-life: male; for bioavailability: SD, rat, from plasma AUC0-inf after oral (50 mg/kg) and i.v. (10 mg/kg) alkaloid fraction, read-out: F (absolute oral bioavailability); for Tmax / AUC(0-inf) / AUC(0-t) / Cmax / MRT inf / half-life / CL / Vd, λz: rat plasma, mean ± SD, n = 5; for Tmax: oral alkaloid fraction 50 mg/kg (NF 22.5, N-NF 10 mg/kg); for AUC(0-inf) / AUC(0-t) / Cmax / MRT inf / half-life / CL / Vd, λz: oral alkaloid fraction 50 mg/kg; for half-life: read-out: t1/2, λz (converted)", "experimental": "(§1) The experimental animals (n = 10), male SD rats (200 ± 20 g), were supplied by the Institute of Laboratory Animal Sciences, Chinese Academy of Medical Sciences and Peking Union Medical College (Beijing, China). The animal experiments were approved by the Animal Ethics Committee at the Institute of Medicinal Plant Development, Chinese Academy of Medical Sciences. The day before the experiment, a light surgery was performed. A polyethylene catheter (0.50-mm ID, 1.00-mm OD, Portex Limited, Hythe, Kent, England) was cannulated into the right jugular vein under anesthesia with an intraperitoneal dose of chloral hydrate at 350 mg/kg. After surgery, the rats were placed individually in cages and allowed to recover for at least 12 h. The rats were fasted overnight with free access to water prior to drug administration.\n(§2) Rats were randomly divided into two groups (five per group). Group 1 was treated with the alkaloid fraction dissolved in 0.03% HCl at a single oral dose of 50 mg/kg by gastric gavage. Group 2 was treated with the alkaloid fraction dissolved in normal saline solution containing 0.03% HCl at an i.v. dose of 10 mg/kg by rapid injection via the catheter. After i.v. administration, 0.2 mL of heparinized saline was injected into the catheter for cleaning.\n(§3) Blood samples (0.2 mL) were collected from the catheter at multiple intervals (0.08, 0.17, 0.25, 0.50, 1, 2, 4, 6, 8, 12, and 16 h) after dosing. Samples were placed into a heparinized centrifuge tube and centrifuged at 3,000 × g and 4°C for 3 min for plasma separation. An aliquot (0.1 mL) of each separated plasma sample was immediately analyzed or stored at -20°C until assay. After each blood collection, 0.2 mL of normal saline containing 20 units of heparin was injected into the catheter to flush the catheter and prevent coagulation.\n(§4) An aliquot of 100 μL of plasma was vortexed with 20 μL of IS (10 μg/mL) and then mixed with 1.5 mL of ethyl acetate for 10 min. Following centrifugation at 8,000 × g for 5 min, the organic phase was completely transferred to a glass tube and concentrated by a gentle nitrogen stream at 40°C. Subsequently, the residue was reconstituted in 150 μL of 80% methanol. Then, the solution was transferred into a small clean tube and centrifuged for 5 min at 16,000 × g. Finally, 10 μL of the supernatant was directly injected into the UPLC system for analysis.\n(§5) Pharmacokinetic parameters were estimated by the drug concentration in the plasma or brain versus time profiles using WinNonlin software (Pharsight Corporation, Mountain View, CA, United States, Version 2.1). A non-compartmental model was employed to calculate the following parameters: initial plasma concentration (C0) for the i.v. dose, plasma or brain maximum concentration (Cmax), time of maximum concentration (Tmax), terminal elimination half-life (t1/2, λz), area under the plasma concentration versus time curve from time zero to the last sampling time (AUC0-t) and zero to infinity (AUC0-inf), total body clearance (CL), volume of distribution (Vd, λz), and MRT. Absolute bioavailability (F) was calculated based on the plasma AUC0-inf obtained after oral and i.v. administration at the equivalent dose. The analyte concentration (Cf) in the brain lateral ventricle at each time point was calculated from its probe recovery (Rdial) and determined concentration (Cd) in dialysate by the equation, Cf = Cd/Rdial."}, "[2]": {"test": "Brain pharmacokinetics (unbound, lateral ventricle) by microdialysis after i.v. dose of alkaloid fraction", "type": "in vivo, rats", "conditions": "rat brain lateral ventricle, mean ± SD, n = 6; for AUC(0-inf) / AUC(0-t) / MRT inf / half-life / Tmax / Cmax: Sprague-Dawley, brain lateral ventricle microdialysate (unbound), iv; for half-life: read-out: t1/2, λz (converted); for Tmax / Cmax: unbound; for Tmax: i.v. alkaloid fraction 20 mg/kg (NF 9, N-NF 4 mg/kg)", "experimental": "The microdialysis experiment was conducted as previously described ([Xiao et al., 2016]). Briefly, the rats were anesthetized with an intraperitoneal dose of chloral hydrate 350 mg/kg, and a guide cannula [MAB6 (9).14.IC; MAB, Stockholm, Sweden] was stereotaxically implanted into the lateral ventricle of the brain at the following coordinates relative to bregma: anterior -0.9 mm; lateral +1.5 mm; and lowered 3.1 mm ventral to the dura surface. The guide cannula was secured in place with skull screws and dental cement. The rats were placed in separate cages for at least 3 days to recover. Then, a light surgery was performed as described above.\nThe probe was perfused with aCSF containing 5 mM β-CD at a flow rate of 2 μL/min. The brain microdialysis system consisted of a syringe microinfusion pump (CMA 400, CMA Microdialysis, Solna, Sweden), equipment for freely moving animals (CMA 120, CMA Microdialysis, Solna, Sweden), a microdialysis probe (MAB6.14.4; 4 mm, MAB, Stockholm, Sweden) and an automatic sample collector (CMA 470, CMA Microdialysis, Solna, Sweden) set at 4°C. The rat was allowed to equilibrate for 1 h prior to the initiation of sample collection. After blank dialysate samples were collected, the animal received an i.v. dose of the alkaloid fraction at 20 mg/kg by injection through the jugular vein. An 8 min delay was incorporated into the sampling procedure to compensate for the dead volume between the active membrane and the sample collection outlet. The dialysates were collected every 20 min time interval for 2 h and then every 30 min time interval for 4 h. The collected samples were kept at 4°C and analyzed within 24 h.\nas §5"}, "[3]": {"design": "method as in earlier work", "conditions": "ref National Center for Biotechnology Information. PubChem Compound Database (CID = 10146; CID = 12313579); cited from earlier work"}, "CYP2D6 isoenzyme": {"tested_on": "CYP2D6 isoenzyme", "design": "method as in Ye et al., 2014", "conditions": "competitive manner; ref Ye et al., 2014; cited from earlier work"}, "[4]": {"test": "Plasma pharmacokinetics after single i.v. dose of lotus leaf alkaloid fraction", "type": "in vivo, SD rats", "conditions": "male, iv, rat plasma, i.v. alkaloid fraction 10 mg/kg, mean ± SD, n = 5; for Vd: read-out: Vd, λz; for half-life: read-out: t1/2, λz (converted)", "experimental": "as §1, §2, §3, §4, §5"}, "[5]": {"conditions": "rats, cited from earlier work"}, "[6]": {"conditions": "i.v. alkaloid fraction 20 mg/kg"}}, "note": "Like-named read-outs stand apart in the source and are kept apart here."}
{"smiles": "COc1cc2c3c(c1OC)-c1ccccc1CC3NCC2", "note": "(centres unmarked) [N-NF, N-nornuciferine]", "values": [{"measurement": "bioavailability", "setting": "[1]", "result": 79.9, "unit": "%"}, {"measurement": "Tmax", "setting": "[1]", "result": "1.65 ± 0.78", "unit": "h"}, {"measurement": "AUC(0-inf)", "setting": "[1]", "result": "3400 ± 700", "unit": "ng·h/mL"}, {"measurement": "AUC(0-t)", "setting": "[1]", "result": "3320 ± 670", "unit": "ng·h/mL"}, {"measurement": "Cmax", "setting": "[1]", "result": "570 ± 100", "unit": "ng/mL"}, {"measurement": "MRT inf", "setting": "[1]", "result": "4.71 ± 0.72", "unit": "h"}, {"measurement": "half-life", "setting": "[1]", "result": "2.94 ± 0.4", "unit": "h"}, {"measurement": "CL", "setting": "[1]", "result": "40.7 ± 9.33", "unit": "mL/min/kg"}, {"measurement": "Vd, λz", "setting": "[1]", "result": "10.34 ± 2.64", "unit": "L/kg"}, {"measurement": "AUC(0-inf)", "setting": "[2]; [6]", "result": "500 ± 60", "unit": "ng·h/mL"}, {"measurement": "AUC(0-t)", "setting": "[2]; [6]", "result": "460 ± 70", "unit": "ng·h/mL"}, {"measurement": "MRT inf", "setting": "[2]; [6]", "result": "2.98 ± 0.49", "unit": "h"}, {"measurement": "half-life", "setting": "[2]; [6]", "result": "1.39 ± 0.68", "unit": "h"}, {"measurement": "Tmax", "setting": "[2]", "result": "1.22 ± 0.27", "unit": "h"}, {"measurement": "Cmax", "setting": "[2]; [6]", "result": "160 ± 30", "unit": "ng/mL"}, {"measurement": "CL/F", "setting": "[2]; [6]", "result": "135 ± 16.7", "unit": "mL/min/kg"}, {"measurement": "LogP", "setting": "[3]", "result": 3}, {"measurement": "inhibition of CYP2D6 isoenzyme activity", "setting": "CYP2D6 isoenzyme", "result": "significantly inhibit"}, {"measurement": "AUC(0-inf)", "setting": "[4]", "result": "850 ± 280", "unit": "ng·h/mL"}, {"measurement": "AUC(0-t)", "setting": "[4]", "result": "740 ± 200", "unit": "ng·h/mL"}, {"measurement": "C0", "setting": "[4]", "result": "690 ± 560", "unit": "ng/mL"}, {"measurement": "MRT inf", "setting": "[4]", "result": "4.94 ± 1.83", "unit": "h"}, {"measurement": "clearance", "setting": "[4]", "result": 43.5, "unit": "mL/min/kg"}, {"measurement": "Vd", "setting": "[4]", "result": "15.2 ± 2.17", "unit": "L/kg"}, {"measurement": "half-life", "setting": "[4]", "result": "3.84 ± 1.27", "unit": "h"}]}
{"smiles": "COc1cc2c3c(c1OC)-c1ccccc1C[C@H]3N(C)CC2", "note": "[NF, nuciferine]", "values": [{"measurement": "bioavailability", "setting": "[1]", "result": 58.1, "unit": "%"}, {"measurement": "Tmax", "setting": "[1]", "result": "0.9 ± 0.72", "unit": "h"}, {"measurement": "AUC(0-inf)", "setting": "[1]", "result": "6200 ± 1330", "unit": "ng·h/mL"}, {"measurement": "AUC(0-t)", "setting": "[1]", "result": "6130 ± 1350", "unit": "ng·h/mL"}, {"measurement": "Cmax", "setting": "[1]", "result": "1710 ± 450", "unit": "ng/mL"}, {"measurement": "MRT inf", "setting": "[1]", "result": "3.35 ± 0.8", "unit": "h"}, {"measurement": "half-life", "setting": "[1]", "result": "2.48 ± 0.66", "unit": "h"}, {"measurement": "CL", "setting": "[1]", "result": "36.5 ± 7.5", "unit": "mL/min/kg"}, {"measurement": "Vd, λz", "setting": "[1]", "result": "7.87 ± 2.84", "unit": "L/kg"}, {"measurement": "AUC(0-inf)", "setting": "[2]; [6]", "result": "830 ± 130", "unit": "ng·h/mL"}, {"measurement": "AUC(0-t)", "setting": "[2]; [6]", "result": "780 ± 130", "unit": "ng·h/mL"}, {"measurement": "MRT inf", "setting": "[2]; [6]", "result": "2.46 ± 0.35", "unit": "h"}, {"measurement": "half-life", "setting": "[2]; [6]", "result": "1.24 ± 0.33", "unit": "h"}, {"measurement": "Tmax", "setting": "[2]", "result": "0.89 ± 0.17", "unit": "h"}, {"measurement": "Cmax", "setting": "[2]; [6]", "result": "320 ± 70", "unit": "ng/mL"}, {"measurement": "CL/F", "setting": "[2]; [6]", "result": "184.7 ± 30", "unit": "mL/min/kg"}, {"measurement": "Vd, λz/F", "setting": "[2]; [6]", "result": "19.78 ± 5.79", "unit": "L/kg"}, {"measurement": "oral bioavailability", "setting": "[5]; oral administration of pure NF, LC-MS/MS, ref Xie et al., 2010", "result": 69.56, "unit": "%"}, {"measurement": "oral bioavailability", "setting": "[5]; pure NF, ref Gu et al., 2014", "result": 3.9, "unit": "%"}, {"measurement": "LogP", "setting": "[3]", "result": 3.4}, {"measurement": "inhibition of CYP2D6 isoenzyme activity", "setting": "CYP2D6 isoenzyme", "result": "significantly inhibit"}, {"measurement": "AUC(0-inf)", "setting": "[4]", "result": "2130 ± 400", "unit": "ng·h/mL"}, {"measurement": "AUC(0-t)", "setting": "[4]", "result": "2090 ± 380", "unit": "ng·h/mL"}, {"measurement": "C0", "setting": "[4]", "result": "2580 ± 890", "unit": "ng/mL"}, {"measurement": "MRT inf", "setting": "[4]", "result": "2.07 ± 0.74", "unit": "h"}, {"measurement": "clearance", "setting": "[4]", "result": 35.8, "unit": "mL/min/kg"}, {"measurement": "Vd", "setting": "[4]", "result": "9.48 ± 3.17", "unit": "L/kg"}, {"measurement": "half-life", "setting": "[4]", "result": "2.09 ± 0.64", "unit": "h"}]}
